# Laboratory results from patent US20170027868A1, “PEPTIDE-[…]” (priority 2015, published 2017).
# Where two headings read alike, the source gives them in different places.
# What was measured:
# [1] = system: HDM-2-positive C26 cells; assay: In vitro cellular binding at 4° C., flow cytometry; type: cell-based; conditions: 20 μg doxorubicin/ml, 1 hour, FIG. 5B
# Experimental: (§1) The exemplary procedure was as follows: cells were detached from cell culture dishes by using 0.05% trypsin and 0.02% EDTA (GIBCO). […] Afterward, the cells were washed three times with PBS and re-suspended in an appropriate volume of the buffer and were analyzed by flow cytometry. BD FACS Calibur equipped was used to read fluorescence signal.
# [2] = system: HDM-2-negative NIH-3T3 cells; assay: In vitro cellular binding at 4° C., flow cytometry; type: cell-based, mouse; conditions: NIH3T3 cells, 20 μg doxorubicin/ml, 1 hour, FIG. 5A
# Experimental: as §1
# [3] = system: HDM-2-negative NIH-3T3 cells; conditions: NIH3T3 cells, 20 μg doxorubicin/ml, 37° C., 3 hours; FIG. 6A
# Experimental: (§2) For evaluating in vitro cellular uptake, NIH3T3 cells were seeded in complete DMEM and C26 were seeded in complete RPMI in 24-well plates (2×10^5 cells/well). […] Then, cells were washed with PBS, detached by 100 μl of trypsin-EDTA solution (Gibco, UK) and centrifuged at 1500 rpm for 5 minutes. The cells were washed with cold PBS three times and resuspended in staining buffer before analysis. […] Then 0.9 ml of an acidified isopropanol was added to each well, and the mixture was incubated overnight at 4° C. to extract the cell-associated doxorubicin. After sedimentation of the cell debris, doxorubicin concentration was measured.
# (§3) Referring to FIGS. 6A and 6B, the geometric mean fluorescence intensity (MFI) of doxorubicin in cells was analyzed by using flow cytometry (FCM) in the FL2 channel.
# [4] = system: C-26 colon carcinoma tumor; assay: In vivo tumor-targeted therapeutic study; conditions: mice bearing C-26 tumor
# Experimental: Tumor models were C26 colon carcinoma in BALB/c mice Female BALB/c mice 4-6 week's old and female C57BL/6 mice 6-12 weeks old were injected subcutaneously in the right flank with tumor cells.
# Also tumor size was monitored three times a week for 60 days. Three dimensions of tumor (height, length and width) were measured with calipers and tumor volume was calculated via the following formula: tumor volume=(height×length×width)×0.5 cm^3. According to instructions for C26 tumor bearing animals, euthanasia was occurred when their body weight decreased (>20% loss of initial mass), their tumor was greater than 2.0 cm in one dimension or they became sick and unable to feed.
# The median survival time (MST) and time to reach end point (TTE) for each mouse were calculated from the equation of the line obtained by exponential regression of the tumor growth curve. Subsequently, the percent of tumor growth delay (TGD) were calculated based on the difference between the mean TTE of treatment group (T) and the mean TTE of the control group (C) (% TGD=[(T−C)/C]×100).
# [5] = system: C26 cells; assay: In vitro cellular uptake at 37° C., flow cytometry; type: cell-based; conditions: 20 μg doxorubicin/ml, 3 hours, FIG. 6B
# Experimental: as §2, §3
# [6] = system: C26 cells; assay: cells
# Experimental: At first, C26 cells were seeded in RPMI 1640 media in 96-well plates (5000 cells/well) and were incubated at 37° C. After overnight incubation, cells were treated with different concentration of drug (1:2 serial dilutions of liposomal doxorubicin or free doxorubicin in FCS-free medium) and then incubated at 37° C. for 3 and 6 hours.
# After scheduled incubation times, cells were washed with pre-warmed complete culture media and re-incubated further for 48 hours at 37° C. and then the viability of cells was determined by MTT assay; for this purpose, 20 ml of MTT (Thiazolyl Blue Tetrazolium Bromide; Sigma-Aldrich) was added to each well of the plate and was incubated for 4 hours at 37° C.
# Relative cell death was calculated as follows: R=(A control−A test)/(A control−A blank) where A test and A control were the absorbance of the cells treated with the test dilutions and the culture medium (negative control). A blank was the absorbance of cell free wells.
# [7] = Bio-distribution study in tumor-bearing mice; conditions: 24 and 48 h; FIG. 8A
# Experimental: Blood samples were collected 3, 6, and 12 hours after drug injection via retro orbital bleeding.
# Animals were sacrificed at 24 and 48 h after drug administration and blood samples were drawn by heart puncture. The whole tumor, one of the kidneys, spleen, heart, lungs as well as a portion of the liver and muscle were dissected, weighted and homogenized in acidified isopropanol with zirconia beads by Mini-Beadbeater-1 (Biospec, OK). Then the blood and the homogenized tissue samples were centrifuged and the blood serum as well as the sera of tissue samples were diluted in adequate volume of acidified isopropanol and stored at 4° C. overnight for Doxorubicin extraction.
# The samples were centrifuged and the supernatant was assayed for Doxorubicin concentration by measuring fluorescence at λEx/Em=480/590 nm compared with Doxorubicin calibration curves, which were prepared in the tissue and sera extracts of the control mice. The pharmacokinetic concentration of doxorubicin was shown as μg/ml of serum.
# [8] = single i.v. dose 15 mg/kg doxorubicin
structure (smiles),measurement,setting,value
"COc1cccc2c1C(=O)c1c(O)c3c(c(O)c1C2=O)C[C@@](O)(C(=O)CO)C[C@@H]3O[C@H]1C[C@H](N)[C@H](O)[C@H](C)O1 [Free doxorubicin, doxorubicin]",cellular binding,[1],more than other forms of drugs
same,cellular binding,[2],more than other forms of drugs
same,cellular uptake (MFI of doxorubicin),[3],too high
same,TGD (tumor growth delay),"[4]; 15 mg/kg, [(T−C)/C]×100 of mean TTE",24.42%
same,MST (median survival time),[4]; [8],27 days
same,TTE (time to reach end point),[4]; [8],27 days
same,cellular uptake (MFI of doxorubicin),[5],too high
same,IC50,"[6]; C26, read-out: IC50 (μM ± SD), C26 cells, 3 h exposure, then 48 h re-incubation",0.625 ± 0.07 µM
same,IC50,"[6]; C26, read-out: IC50 (μM ± SD), C26 cells, 6 h exposure, then 48 h re-incubation",0.302 ± 0.05 µM
same,bio-distribution in serum,[7],decreasing trend over time
